ChEMBL document CHEMBL1201862, “PubChem BioAssay data set” (2004)
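Where inhibition never reached the appropriate level, the endpoint shown equals the highest concentration tested. Otherwise, values were interpolated linearly from a five-concentration, 48-hour dose response in 96-well plates. Abbreviation: GI50, concentration required for 50% inhibition of growth.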 Active and inactive are the calls of the source. Rule as the data show it: active = GI50 up to about 1.1 µM and inactive = higher.

Key:
Assay in all cases: inhibition of tumour cell growth, NCI panel, 48 h
786-0 = test system: 786-0
A498 = test system: A498
A549 = test system: A549
ACHN = test system: ACHN
BT-549 = test system: BT-549
CAKI-1 = test system: CAKI-1
CCRF-CEM = test system: CCRF-CEM
COLO 205 = test system: COLO 205
DU-145 = test system: DU-145
EKVX = test system: EKVX
HCC 2998 = test system: HCC 2998
HCT-116 = test system: HCT-116
HCT-15 = test system: HCT-15
HL-60 = test system: HL-60
HOP-62 = test system: HOP-62
HOP-92 = test system: HOP-92
HT-29 = test system: HT-29
Hs-578T = test system: Hs-578T
IGROV-1 = test system: IGROV-1
K562 = test system: K562
KM12 = test system: KM12
LOX IMVI = test system: LOX IMVI
M14 = test system: M14
MCF7 = test system: MCF7
MDA-MB-231 = test system: MDA-MB-231
MDA-MB-435 = test system: MDA-MB-435
MDA-N = test system: MDA-N
MOLT-4 = test system: MOLT-4
Malme-3M = test system: Malme-3M
NCI-H226 = test system: NCI-H226
NCI-H23 = test system: NCI-H23
NCI-H460 = test system: NCI-H460
NCI-H522 = test system: NCI-H522
NCI/ADR-RES = test system: NCI/ADR-RES
OVCAR-3 = test system: OVCAR-3
OVCAR-4 = test system: OVCAR-4
OVCAR-5 = test system: OVCAR-5
OVCAR-8 = test system: OVCAR-8
PC-3 = test system: PC-3
RPMI-8226 = test system: RPMI-8226
RXF 393 = test system: RXF 393
SF-268 = test system: SF-268
SF-295 = test system: SF-295
SF-539 = test system: SF-539
SK-MEL-28 = test system: SK-MEL-28
SK-MEL-2 = test system: SK-MEL-2
SK-MEL-5 = test system: SK-MEL-5
SK-OV-3 = test system: SK-OV-3
SN12C = test system: SN12C
SNB-19 = test system: SNB-19
SNB-75 = test system: SNB-75
SW-620 = test system: SW-620
T47D = test system: T47D
TK-10 = test system: TK-10
U-251 = test system: U-251
UACC-257 = test system: UACC-257
UACC-62 = test system: UACC-62
SR = test system: SR
UO-31 = test system: UO-31

Measured: GI50

COc1ccc(/C=C/c2nccc3ccccc23)cc1OC
> 10 µM: HCT-15
inactive: 786-0 > 10 µM | A498 9.73 µM | A549 > 10 µM | ACHN > 10 µM | BT-549 > 10 µM | CAKI-1 > 10 µM | CCRF-CEM 6.52 µM | COLO 205 > 10 µM | DU-145 > 10 µM | EKVX > 10 µM | HCC 2998 > 10 µM | HCT-116 5.9 µM | HL-60 > 10 µM | HOP-62 > 10 µM | HOP-92 6.17 µM | HT-29 4.05 µM | Hs-578T > 10 µM | IGROV-1 > 10 µM | K562 5.5 µM | KM12 8.13 µM | LOX IMVI 4.57 µM | M14 > 10 µM | MCF7 2.43 µM | MDA-MB-231 2.77 µM | MDA-MB-435 6.64 µM | MDA-N > 10 µM | MOLT-4 4.52 µM | Malme-3M > 10 µM | NCI-H226 > 10 µM | NCI-H23 7.21 µM | NCI-H460 > 10 µM | NCI-H522 > 10 µM | NCI/ADR-RES 9.38 µM | OVCAR-3 9.2 µM | OVCAR-4 > 10 µM | OVCAR-5 > 10 µM | OVCAR-8 > 10 µM | PC-3 > 10 µM | RPMI-8226 5.98 µM | RXF 393 > 10 µM | SF-268 > 10 µM | SF-295 > 10 µM | SF-539 > 10 µM | SK-MEL-28 > 10 µM | SK-MEL-2 > 10 µM | SK-MEL-5 6.21 µM | SK-OV-3 > 10 µM | SN12C 9.48 µM | SNB-19 > 10 µM | SNB-75 > 10 µM | SW-620 > 10 µM | T47D > 10 µM | TK-10 > 10 µM | U-251 > 10 µM | UACC-257 > 10 µM | UACC-62 > 10 µM

CC#C[C@]1(O)CCC2[C@@H]3CCC4=CC(=O)CCC4=C3[C@@H](c3ccc(N(C)C)cc3)C[C@@]21C (some centres undefined)
inactive: 786-0 15.2 µM | A549 10.2 µM | ACHN 18.7 µM | BT-549 16.6 µM | CAKI-1 5.73 µM | CCRF-CEM 9.75 µM | COLO 205 11.5 µM | DU-145 22.1 µM | EKVX 13.2 µM | HCT-116 15 µM | HL-60 16 µM | HOP-62 20 µM | HOP-92 1.43 µM | HT-29 12.9 µM | Hs-578T 13 µM | K562 20.9 µM | KM12 15.7 µM | LOX IMVI 16 µM | M14 13.8 µM | MCF7 5.27 µM | MDA-MB-231 8.79 µM | MDA-MB-435 12.2 µM | MDA-N 11.8 µM | Malme-3M 14.6 µM | NCI-H23 21.4 µM | NCI-H460 9.86 µM | NCI/ADR-RES 11.5 µM | OVCAR-3 8.28 µM | OVCAR-4 6.37 µM | OVCAR-5 22.7 µM | OVCAR-8 26.5 µM | PC-3 21.7 µM | RPMI-8226 2.02 µM | SF-268 6.85 µM | SF-295 10.7 µM | SF-539 12.6 µM | SK-MEL-28 14.4 µM | SK-MEL-5 10.9 µM | SK-OV-3 18.3 µM | SN12C 21.8 µM | SNB-19 35 µM | SR 14.1 µM | SW-620 13.3 µM | T47D 6.84 µM | TK-10 11.9 µM | U-251 12.5 µM | UACC-257 13.2 µM | UACC-62 3.36 µM | UO-31 8.2 µM
12.3 µM: HCT-15

Nc1cc2ncnn2c(SCC(=O)N/N=C/C(Br)=C\c2ccccc2)n1
inactive: 786-0 15.1 µM | A549 16.3 µM | ACHN 16.9 µM | BT-549 17.3 µM | CAKI-1 17.9 µM | CCRF-CEM 5.77 µM | COLO 205 19.1 µM | DU-145 > 10 µM | EKVX 22.5 µM | HCC 2998 19.9 µM | HCT-116 21.7 µM | HL-60 11.9 µM | HOP-62 33.6 µM | HT-29 14.8 µM | Hs-578T 23.1 µM | IGROV-1 11.5 µM | K562 12.8 µM | KM12 17.9 µM | LOX IMVI 16 µM | MCF7 14.7 µM | MDA-MB-231 15.5 µM | MDA-MB-435 15 µM | MDA-N 16.2 µM | MOLT-4 12.4 µM | Malme-3M 12.1 µM | NCI-H226 20 µM | NCI-H23 10.8 µM | NCI-H460 17.3 µM | NCI-H522 10.6 µM | NCI/ADR-RES 25.5 µM | OVCAR-3 18.5 µM | OVCAR-5 22.1 µM | OVCAR-8 15.9 µM | PC-3 12.6 µM | RPMI-8226 10.6 µM | RXF 393 15.8 µM | SF-295 21.8 µM | SF-539 16.7 µM | SK-MEL-28 16 µM | SK-MEL-5 13.4 µM | SN12C 17.3 µM | SNB-19 31 µM | SNB-75 20.1 µM | SR 10.6 µM | SW-620 16.4 µM | T47D 3.49 µM | TK-10 31.8 µM | U-251 5.24 µM | UACC-257 9.62 µM | UACC-62 7.23 µM | UO-31 15.5 µM
18.1 µM: HCT-15

CCOC(=O)C1(C(F)(F)F)N=C(CC)OC(N2CCOCC2)=N1 (centres undefined)
> 100 µM: HCT-15
inactive: A549 > 100 µM | ACHN > 100 µM | BT-549 > 100 µM | CAKI-1 > 100 µM | CCRF-CEM > 100 µM | COLO 205 > 100 µM | DU-145 > 100 µM | EKVX > 100 µM | HCC 2998 > 100 µM | HCT-116 > 100 µM | HL-60 > 100 µM | HOP-92 > 100 µM | HT-29 > 100 µM | Hs-578T > 100 µM | IGROV-1 > 100 µM | K562 > 100 µM | KM12 > 100 µM | LOX IMVI > 100 µM | M14 > 100 µM | MCF7 > 100 µM | MDA-MB-231 > 100 µM | MDA-MB-435 > 100 µM | MDA-N > 100 µM | MOLT-4 > 100 µM | NCI-H23 > 100 µM | NCI-H460 > 100 µM | NCI-H522 > 100 µM | NCI/ADR-RES > 100 µM | OVCAR-3 > 100 µM | OVCAR-4 > 100 µM | OVCAR-5 > 100 µM | OVCAR-8 > 100 µM | PC-3 > 100 µM | RPMI-8226 > 100 µM | RXF 393 > 100 µM | SF-268 > 100 µM | SF-295 > 100 µM | SF-539 > 100 µM | SK-MEL-28 > 100 µM | SK-MEL-2 > 100 µM | SK-MEL-5 > 100 µM | SK-OV-3 > 100 µM | SN12C > 100 µM | SNB-19 > 100 µM | SNB-75 > 100 µM | SR > 100 µM | SW-620 > 100 µM | T47D 46.6 µM | TK-10 > 100 µM | U-251 > 100 µM | UACC-257 > 100 µM | UACC-62 54.5 µM | UO-31 > 100 µM

CC(=O)C1=C(C)N2C(=NC3=C(CCc4ccccc43)C2c2cccc(Br)c2)S1 (centres undefined)
inactive: 786-0 > 100 µM | A498 > 100 µM | A549 > 100 µM | ACHN > 100 µM | BT-549 > 100 µM | CCRF-CEM 69.7 µM | COLO 205 88.1 µM | DU-145 > 100 µM | EKVX 11.4 µM | HCC 2998 72.9 µM | HCT-116 30.8 µM | HL-60 25.8 µM | HOP-62 > 100 µM | HOP-92 > 100 µM | HT-29 22.1 µM | Hs-578T 67.1 µM | IGROV-1 48.2 µM | KM12 49.7 µM | LOX IMVI 76.4 µM | M14 > 100 µM | MCF7 > 100 µM | MDA-MB-231 > 100 µM | MDA-MB-435 > 100 µM | MDA-N > 100 µM | NCI-H226 79.6 µM | NCI-H23 99.1 µM | NCI/ADR-RES > 100 µM | OVCAR-3 93.1 µM | OVCAR-4 > 100 µM | OVCAR-5 > 100 µM | OVCAR-8 > 100 µM | PC-3 > 100 µM | RPMI-8226 16.8 µM | RXF 393 > 100 µM | SF-268 > 100 µM | SF-295 > 100 µM | SF-539 > 100 µM | SK-MEL-28 > 100 µM | SK-MEL-2 > 100 µM | SK-MEL-5 41.3 µM | SK-OV-3 > 100 µM | SN12C > 100 µM | SNB-19 > 100 µM | SNB-75 > 100 µM | SW-620 > 100 µM | T47D > 100 µM | U-251 > 100 µM | UACC-257 84.1 µM | UACC-62 68.2 µM | UO-31 > 100 µM
74.8 µM: HCT-15
